Target: T1, recombinant human SAE enzyme (Homo sapiens, UniProt Q9UBT2)
T1 sequence (Q9UBT2 1-640): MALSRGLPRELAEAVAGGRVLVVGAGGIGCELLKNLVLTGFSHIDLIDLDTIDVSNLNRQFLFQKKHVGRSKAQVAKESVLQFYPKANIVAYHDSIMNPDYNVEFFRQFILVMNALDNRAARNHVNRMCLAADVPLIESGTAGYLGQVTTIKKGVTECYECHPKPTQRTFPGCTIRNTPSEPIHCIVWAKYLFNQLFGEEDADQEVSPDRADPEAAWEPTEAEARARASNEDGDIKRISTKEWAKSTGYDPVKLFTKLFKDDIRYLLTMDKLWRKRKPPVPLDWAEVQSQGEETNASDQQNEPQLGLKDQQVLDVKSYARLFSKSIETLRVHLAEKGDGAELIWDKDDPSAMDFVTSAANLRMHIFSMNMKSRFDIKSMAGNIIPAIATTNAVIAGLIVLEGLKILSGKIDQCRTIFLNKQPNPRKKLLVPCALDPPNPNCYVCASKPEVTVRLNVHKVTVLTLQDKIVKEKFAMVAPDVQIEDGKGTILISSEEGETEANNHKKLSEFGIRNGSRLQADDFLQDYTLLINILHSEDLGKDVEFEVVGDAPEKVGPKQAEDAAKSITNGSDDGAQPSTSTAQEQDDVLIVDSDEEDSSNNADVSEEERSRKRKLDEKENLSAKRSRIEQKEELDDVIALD
T1 sequence (Q9UBE0 1-346 partner): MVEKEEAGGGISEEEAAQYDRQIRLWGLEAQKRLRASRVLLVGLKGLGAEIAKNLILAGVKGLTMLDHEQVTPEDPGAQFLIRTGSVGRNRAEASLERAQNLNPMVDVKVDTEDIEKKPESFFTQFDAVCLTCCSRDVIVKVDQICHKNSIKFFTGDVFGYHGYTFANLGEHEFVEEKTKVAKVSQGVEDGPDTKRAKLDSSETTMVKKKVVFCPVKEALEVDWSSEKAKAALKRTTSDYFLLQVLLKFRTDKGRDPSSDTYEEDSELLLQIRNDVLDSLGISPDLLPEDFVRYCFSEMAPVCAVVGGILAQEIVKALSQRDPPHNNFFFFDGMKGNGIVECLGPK
Assay: SAE HTRF Enzyme Assay
Assay type: biochemical
Conditions: for IC50: class symbols A-C; for inhibition at 0.111 µM: compound concentration 0.111 μM, read-out: Percent Inhibition
Method in brief: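 HTRF signal from Eu-anti-Flag/APC-anti-GST pairs reports Sumo-Flag loaded onto Ubc9-GST by 0.11 nM SAE. Reaction: 0.5 μM ATP, 0.125 μM Sumo-Flag, 0.01 μM Ubc9-GST, 5 mM MgCl2, pH 7.5, 105 min, 24° C. Single-concentration % inhibition or IC50 reported.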

Compound	IC50 [nM]	inhibition at 0.111 µM [%]
NS(=O)(=O)OC[C@H]1C[C@@H](Nc2ncncc2C(=O)c2ccn(Cc3ccc(F)c(Br)c3)c2)[C@@H](F)[C@@H]1O [Compound I-143, {(1R,2R,3R,4R)-4-[(5-{[1-(3-bromo-4-fluorobenzyl)-1H-pyrrol-3-yl]carbonyl}pyrimidin-4-yl)amino]-3-fluoro-2-hydroxycyclopentyl}methyl sulfamate]	< 10	99
NS(=O)(=O)OC[C@H]1C[C@@H](Nc2ncncc2C(=O)c2ccn(Cc3ccc4nccn4c3)n2)C[C@@H]1O [Compound I-144, {(1R,2S,4R)-2-hydroxy-4-[(5-{[1-(imidazo[1,2-a]pyridin-6-ylmethyl)-1H-pyrazol-3-yl]carbonyl}pyrimidin-4-yl)amino]cyclopentyl}methyl sulfamate]	< 10	97
NS(=O)(=O)OC[C@H]1C[C@@H](Nc2ncncc2C(=O)c2ccn(CC3=CCCOC3)n2)C[C@@H]1O [Compound I-145, {(1R,2S,4R)-4-[(5-{[1-(5,6-dihydro-2H-pyran-3-ylmethyl)-1H-pyrazol-3-yl]carbonyl}pyrimidin-4-yl)amino]-2-hydroxycyclopentyl}methyl sulfamate]	10 to 100	65
NS(=O)(=O)OC[C@H]1C[C@@H](Nc2ncncc2C(=O)c2ccn(Cc3ccc(Cl)cc3F)n2)[C@H](O)[C@@H]1O [Compound I-146, {(1R,2R,3S,4R)-4-[(5-{[1-(4-chloro-2-fluorobenzyl)-1H-pyrazol-3-yl]carbonyl}pyrimidin-4-yl)amino]-2,3-dihydroxycyclopentyl}methyl sulfamate]	< 10	99
NS(=O)(=O)OC[C@H]1C[C@@H](Nc2ncncc2C(=O)c2ccn(Cc3cccc(Cl)c3)c2)[C@@H](F)[C@@H]1O [Compound I-147, {(1R,2R,3R,4R)-4-[(5-{[1-(3-chlorobenzyl)-1H-pyrrol-3-yl]carbonyl}pyrimidin-4-yl)amino]-3-fluoro-2-hydroxycyclopentyl}methyl sulfamate]	< 10	> 99
NS(=O)(=O)OC[C@H]1C[C@@H](Nc2ncncc2C(=O)c2cc(Cl)n(Cc3cc(C(F)(F)F)on3)c2)[C@@H](F)[C@@H]1O [Compound I-148, [(1R,2R,3R,4R)-4-({5-[(5-chloro-1-{[5-(trifluoromethyl)isoxazol-3-yl]methyl}-1H-pyrrol-3-yl)carbonyl]pyrimidin-4-yl}amino)-3-fluoro-2-hydroxycyclopentyl]methyl sulfamate]	10 to 100	85
Cc1cn(Cc2cccc(Br)c2)cc1C(=O)c1cncnc1N[C@@H]1C[C@H](COS(N)(=O)=O)[C@@H](O)[C@@H]1F [Compound I-149, {(1R,2R,3R,4R)-4-[(5-{[1-(3-bromobenzyl)-4-methyl-1H-pyrrol-3-yl]carbonyl}pyrimidin-4-yl)amino]-3-fluoro-2-hydroxycyclopentyl}methyl sulfamate]	10 to 100	85
NS(=O)(=O)OC[C@H]1C[C@@H](Nc2ncncc2C(=O)c2ccn(Cc3ccccn3)n2)[C@H](O)[C@@H]1O [Compound I-150, {(1R,2R,3S,4R)-2,3-dihydroxy-4-[(5-{[1-(pyridin-2-ylmethyl)-1H-pyrazol-3-yl]carbonyl}pyrimidin-4-yl)amino]cyclopentyl}methyl sulfamate]	< 10	98
COC(C)(C)C#CCn1ccc(C(=O)c2cncnc2N[C@@H]2C[C@H](COS(N)(=O)=O)[C@@H](O)C2)n1 [Compound I-151, {(1R,2S,4R)-2-hydroxy-4-[(5-{[1-(4-methoxy-4-methylpent-2-yn-1-yl)-1H-pyrazol-3-yl]carbonyl}pyrimidin-4-yl)amino]cyclopentyl}methyl sulfamate]	10 to 100	54
NS(=O)(=O)OC[C@H]1C[C@@H](Nc2ncncc2C(=O)c2ccn(Cc3ccc(Cl)c(OC(F)(F)F)c3)n2)C[C@@H]1O [Compound I-152, [(1R,2S,4R)-4-{[5-({1-[4-Chloro-3-(trifluoromethoxy)benzyl]-1H-pyrazol-3-yl}carbonyl)pyrimidin-4-yl]amino}-2-hydroxycyclopentyl]methyl sulfamate]	< 10	94
CC(C)CC#CCn1ccc(C(=O)c2cncnc2N[C@@H]2C[C@H](COS(N)(=O)=O)[C@@H](O)C2)n1 [Compound I-153, {(1R,2S,4R)-2-hydroxy-4-[(5-{[1-(5-methylhex-2-yn-1-yl)-1H-pyrazol-3-yl]carbonyl}pyrimidin-4-yl)amino]cyclopentyl}methyl sulfamate]	10 to 100	82
CC(C)(O)C#CCn1ccc(C(=O)c2cncnc2N[C@@H]2C[C@H](COS(N)(=O)=O)[C@@H](O)C2)n1 [Compound I-154, {(1R,2S,4R)-2-hydroxy-4-[(5-{[1-(4-hydroxy-4-methylpent-2-yn-1-yl)-1H-pyrazol-3-yl]carbonyl}pyrimidin-4-yl)amino]cyclopentyl}methyl sulfamate]	100 to 1000	39
NS(=O)(=O)OC[C@H]1C[C@@H](Nc2ncncc2C(=O)c2ccn(Cc3cc(C(F)(F)F)cc(C(F)(F)F)c3)n2)[C@H](O)[C@@H]1O [Compound I-155, [(1R,2R,3S,4R)-4-{[5-({1-[3,5-bis(trifluoromethyl)benzyl]-1H-pyrazol-3-yl}carbonyl)pyrimidin-4-yl]amino}-2,3-dihydroxycyclopentyl]methyl sulfamate]	< 10	97
NS(=O)(=O)OC[C@H]1C[C@@H](Nc2ncncc2C(=O)c2ccn(Cc3ccc(Cl)c(C(F)(F)F)c3)n2)[C@@H](F)[C@@H]1O [Compound I-156, [(1R,2R,3R,4R)-4-{[5-({1-[4-chloro-3-(trifluoromethyl)benzyl]-1H-pyrazol-3-yl}carbonyl)pyrimidin-4-yl]amino}-3-fluoro-2-hydroxycyclopentyl]methyl sulfamate]	10 to 100	90
CN(c1ncncc1C(=O)c1ccn(Cc2cccc(Br)c2)n1)[C@@H]1C[C@H](COS(N)(=O)=O)[C@@H](O)C1 [Compound I-157, {(1R,2S,4R)-4-[(5-{[1-(3-Bromobenzyl)-1H-pyrazol-3-yl]carbonyl}pyrimidin-4-yl)(methyl)amino]-2-hydroxycyclopentyl}methyl sulfamate]	10 to 100	67
NS(=O)(=O)OC[C@H]1C[C@@H](Nc2ncncc2C(=O)c2ccn(Cc3ccccc3)n2)C[C@@H]1O [Compound I-158, [(1R,2S,4R)-4-({5-[(1-Benzyl-1H-pyrazol-3-yl)carbonyl]pyrimidin-4-yl}amino)-2-hydroxycyclopentyl]methyl sulfamate]	< 10	95
NS(=O)(=O)OC[C@H]1C[C@@H](Nc2ncncc2C(=O)c2ccn(Cc3ccc(Cl)c(Cl)c3)n2)[C@H](O)[C@@H]1O [Compound I-159, {(1R,2R,3S,4R)-4-[(5-{[1-(3,4-dichlorobenzyl)-1H-pyrazol-3-yl]carbonyl}pyrimidin-4-yl)amino]-2,3-dihydroxycyclopentyl}methyl sulfamate]	< 10	96

— US9695154B2, “Heteroaryl inhibitors of sumo activating enzyme” (MILLENNIUM PHARMACEUTICALS, INC., priority 2013, dated 2017)
